# Measured values from PMC10329973 (Clinical pharmacology in drug development, 2023).
# Columns and labels:
# [1] = Multiple ascending dose study NP10679-102, plasma pharmacokinetics; type: in vivo; details: human, iv; for Cmax / Tmax: MAD; for half-life: T 1/2, MAD
# healthy adult volunteers = experiment: Multiple ascending dose study NP10679-102, safety and tolerability; type: in vivo, human; details: MAD
# [2] = 25 mg, 25 mg IV once daily, day 1
# [3] = 25 mg, 25 mg IV once daily, day 2
# [4] = 25 mg, 25 mg IV once daily, day 3
# [5] = 25 mg, 25 mg IV once daily, day 4
# [6] = 25 mg, 25 mg IV once daily, day 5
# [7] = 50 mg, 50 mg IV once daily, day 1
# [8] = 50 mg, 50 mg IV once daily, day 2
# [9] = 50 mg, 50 mg IV once daily, day 3
# [10] = 50 mg, 50 mg IV once daily, day 4
# [11] = 50 mg, 50 mg IV once daily, day 5
# [12] = 100 mg, 100 mg IV once daily, day 1
# [13] = 100 mg, 100 mg IV once daily, day 2
# [14] = 100 mg, 100 mg IV once daily, day 3
# [15] = 100 mg, 100 mg IV once daily, day 4
# [16] = 100 mg, 100 mg IV once daily, day 5
# [17] = 25 mg IV once daily x 5 days, N = 6
smiles,measurement,setting,value
"O=C1CCc2cc(OC[C@H](O)CN3CCN(c4ccc(C(F)(F)F)cc4)CC3)ccc2N1 [NP10679, (R)-6-(2-Hydroxy-3-(4-(4-(trifluoromethyl)phenyl)piperazin-1-yl)propoxy)-3,4-dihydroquinolin-2(1H)-one]",AUC(0-t),"[1]; 25 mg, AUC 0–24, MAD, 25 mg IV once daily, day 1",1470 ± 186 ng·h/mL
same,AUC(0-t),"[1]; 25 mg, AUC 0–24, MAD, 25 mg IV once daily, day 2",1920 ± 305 ng·h/mL
same,AUC(0-t),"[1]; 25 mg, AUC 0–24, MAD, 25 mg IV once daily, day 3",2090 ± 303 ng·h/mL
same,AUC(0-t),"[1]; 25 mg, AUC 0–24, MAD, 25 mg IV once daily, day 4",2170 ± 397 ng·h/mL
same,AUC(0-t),"[1]; 25 mg, AUC 0–24, MAD, 25 mg IV once daily, day 5",2260 ± 478 ng·h/mL
same,AUC(0-t),"[1]; 25 mg, AUC 0–96, MAD, 25 mg IV once daily, day 5",3880 ± 1140 ng·h/mL
same,Cmax,[1]; [2],208 ± 72 ng/mL
same,Cmax,[1]; [3],211 ± 57 ng/mL
same,Cmax,[1]; [4],207 ± 35 ng/mL
same,Cmax,[1]; [5],250 ± 34 ng/mL
same,Cmax,[1]; [6],213 ± 26 ng/mL
same,half-life,[1]; [2],15 ± 3 h
same,half-life,[1]; [3],17 ± 2 h
same,half-life,[1]; [4],16 ± 3 h
same,half-life,[1]; [5],19 ± 5 h
same,half-life,[1]; [6],36 ± 15 h
same,Tmax,[1]; [2],0.5 h
same,Tmax,[1]; [3],0.9 ± 0.8 h
same,Tmax,[1]; [4],0.8 ± 0.4 h
same,Tmax,[1]; [5],0.5 h
same,Tmax,[1]; [6],0.5 h
same,AUC(0-t),"[1]; 50 mg, AUC 0–24, MAD, 50 mg IV once daily, day 1",2650 ± 283 ng·h/mL
same,AUC(0-t),"[1]; 50 mg, AUC 0–24, MAD, 50 mg IV once daily, day 2",3300 ± 479 ng·h/mL
same,AUC(0-t),"[1]; 50 mg, AUC 0–24, MAD, 50 mg IV once daily, day 3",3890 ± 424 ng·h/mL
same,AUC(0-t),"[1]; 50 mg, AUC 0–24, MAD, 50 mg IV once daily, day 4",4110 ± 485 ng·h/mL
same,AUC(0-t),"[1]; 50 mg, AUC 0–24, MAD, 50 mg IV once daily, day 5",4290 ± 500 ng·h/mL
same,AUC(0-t),"[1]; 50 mg, AUC 0–96, MAD, 50 mg IV once daily, day 5",6960 ± 1170 ng·h/mL
same,Cmax,[1]; [7],376 ± 99 ng/mL
same,Cmax,[1]; [8],276 ± 60 ng/mL
same,Cmax,[1]; [9],335 ± 73 ng/mL
same,Cmax,[1]; [10],389 ± 116 ng/mL
same,Cmax,[1]; [11],394 ± 72 ng/mL
same,half-life,[1]; [7],18 ± 4 h
same,half-life,[1]; [8],18 ± 3 h
same,half-life,[1]; [9],26 ± 16 h
same,half-life,[1]; [10],16 ± 1 h
same,half-life,[1]; [11],21 ± 3 h
same,Tmax,[1]; [7],0.8 ± 0.8 h
same,Tmax,[1]; [8],1 ± 0.4 h
same,Tmax,[1]; [9],0.8 ± 0.5 h
same,Tmax,[1]; [10],0.8 ± 0.5 h
same,Tmax,[1]; [11],0.7 ± 0.4 h
same,AUC(0-t),"[1]; 100 mg, AUC 0–24, MAD, 100 mg IV once daily, day 1",5630 ± 625 ng·h/mL
same,AUC(0-t),"[1]; 100 mg, AUC 0–24, MAD, 100 mg IV once daily, day 2",7320 ± 279 ng·h/mL
same,AUC(0-t),"[1]; 100 mg, AUC 0–24, MAD, 100 mg IV once daily, day 3",8710 ± 458 ng·h/mL
same,AUC(0-t),"[1]; 100 mg, AUC 0–24, MAD, 100 mg IV once daily, day 4",9510 ± 1200 ng·h/mL
same,AUC(0-t),"[1]; 100 mg, AUC 0–24, MAD, 100 mg IV once daily, day 5",8980 ± 376 ng·h/mL
same,AUC(0-t),"[1]; 100 mg, AUC 0–96, MAD, 100 mg IV once daily, day 5",13900 ± 962 ng·h/mL
same,Cmax,[1]; [12],1240 ± 1150 ng/mL
same,Cmax,[1]; [13],570 ± 29 ng/mL
same,Cmax,[1]; [14],812 ± 190 ng/mL
same,Cmax,[1]; [15],873 ± 236 ng/mL
same,Cmax,[1]; [16],1080 ± 295 ng/mL
same,half-life,[1]; [12],22 ± 5 h
same,half-life,[1]; [13],22 ± 5 h
same,half-life,[1]; [14],22 ± 5 h
same,half-life,[1]; [15],34 ± 28 h
same,half-life,[1]; [16],13 ± 5 h
same,Tmax,[1]; [12],0.5 h
same,Tmax,[1]; [13],0.8 ± 0.3 h
same,Tmax,[1]; [14],0.5 h
same,Tmax,[1]; [15],0.6 ± 0.3 h
same,Tmax,[1]; [16],0.5 h
same,"dissociative symptoms or cognitive impairment (CADSS, DSST)",healthy adult volunteers,no evidence
same,serious adverse events (SAEs),healthy adult volunteers,No serious adverse events
same,Subjects with at least one TEAE,healthy adult volunteers; [17],5 (83.3%) n (%)
same,"TEAE, system organ class: Blood and lymphatic system disorders",healthy adult volunteers; [17],2 (33.3%) n (%)
same,"TEAE, system organ class: Eye disorders",healthy adult volunteers; [17],0 n (%)
same,"TEAE, system organ class: Gastrointestinal disorders",healthy adult volunteers; [17],0 n (%)
same,"TEAE, system organ class: General disorders and administration site conditions",healthy adult volunteers; [17],1 (16.7%) n (%)
same,"TEAE, system organ class: Injury, poisoning and procedural complications",healthy adult volunteers; [17],2 (33.3%) n (%)
same,"TEAE, system organ class: Investigations",healthy adult volunteers; [17],1 (16.7%) n (%)
same,"TEAE, system organ class: Musculoskeletal and connective tissue disorders",healthy adult volunteers; [17],0 n (%)
same,"TEAE, system organ class: Nervous system disorders",healthy adult volunteers; [17],3 (50.0%) n (%)
same,"TEAE, system organ class: Skin and subcutaneous tissue disorders",healthy adult volunteers; [17],0 n (%)
same,"TEAE, system organ class: Vascular disorders",healthy adult volunteers; [17],0 n (%)
same,TEAE: Anaemia,healthy adult volunteers; [17],2 (33.3%) n (%)
same,TEAE: Asthenia,healthy adult volunteers; [17],0 n (%)
same,TEAE: Back pain,healthy adult volunteers; [17],0 n (%)
same,TEAE: Blood pressure diastolic decreased,healthy adult volunteers; [17],1 (16.7%) n (%)
same,TEAE: Contusion,healthy adult volunteers; [17],2 (33.3%) n (%)
